Assay results as given in patent US4791139A, “Diphenyl ether derivatives and their use as insecticides” (Imperial Chemical Industries PLC, priority 1986, dated 1988).

Experiments:
Type in all cases: in vivo
[1] = system: Musca domestica (houseflies - adults); assay: Contact test, houseflies - adults (MD), Cotton wool/sugar; settings: 24 h, 1 day, read-out: MD grading of mortality
Experimental: (§1) The activity of the Product was determined using a variety of insect pests. The Product was used in the form of liquid preparations containing from 100 to 500 parts per million (ppm) by weight of the Product. The preparations were made by dissolving the Product in acetone and diluting the solutions with water containing 0.1% by weight of a wetting agent sold under the trade name "SYNPERONIC" NX until the liquid preparations contained the required concentration of the Product. "SYNPERONIC" is a Registered Trade Mark. The test procedure adopted with regard to each pest was basically the same and comprised supporting a number of the pests on a medium which was usually a host plant or a foodstuff on which the pests feed, and treating either or both the pests and the medium with the preparations. The mortality of the pests was then assessed at periods usually varying from one to seven days after the treatment.

[2] = system: Tetranychus urticae (spider mites - adult); assay: Contact test, spider mites - adult (TUa), French bean leaf; settings: 72 h, 3 days, read-out: TUA grading of mortality
Experimental: as §1

[3] = system: Heliothis virescens (tobacco budworm - larvae); assay: Residual test, tobacco budworm - larvae (HV), Cotton leaf; settings: 72 h, read-out: HV grading of mortality
Experimental: (§2) The activity of the Product was determined using a variety of insect pests. The Product was used in the form of liquid preparations containing from 100 to 500 parts per million (ppm) by weight of the Product. The preparations were made by dissolving the Product in acetone and diluting the solutions with water containing 0.1% by weight of a wetting agent sold under the trade name "SYNPERONIC" NX until the liquid preparations contained the required concentration of the Product. "SYNPERONIC" is a Registered Trade Mark.
(§3) The test procedure adopted with regard to each pest was basically the same and comprised supporting a number of the pests on a medium which was usually a host plant or a foodstuff on which the pests feed, and treating either or both the pests and the medium with the preparations. The mortality of the pests was then assessed at periods usually varying from one to seven days after the treatment.
(§4) The results of the tests are given in Table III for each of the Products, at the rate in parts per million given in the second column as a grading of mortality designated as A, B or C wherein A indicates 80-100% mortality or knockdown (70-100% for Meloidogyne incognita), B indicates 50-79% mortality knockdown or knockdown (50-69% for Meloidogyne incognita) and C indicates less than 50% mortality or knockdown.
(§5) In Table III the pest organism used is designated by a letter code and the pests species, the support medium or food, and the type and duration of test is given in Table II.
(tobacco budworm - larvae)

[4] = system: Diabrotica balteata (rootworm larvae); assay: Residual test, rootworm larvae (DB), Filter paper/maize seed; settings: 72 h, 3 days, read-out: DB grading of mortality
Experimental: as §1

[5] = system: Nilaparvata lugens (brown plant hopper - nymphs); assay: Contact test, brown plant hopper - nymphs (NL), Rice plant; settings: 72 h, 3 days, read-out: NL grading of mortality
Experimental: as §1

[6] = system: Tetranychus urticae (spider mites - ova); assay: Contact test, spider mites - ova (TUe), French bean leaf; settings: 144 h, 6 days, read-out: TUE grading of mortality
Experimental: as §1

[7] = system: Spodoptera exigua (lesser army worm - larvae); assay: Residual test, lesser army worm - larvae (SP), Cotton leaf; settings: 72 h, 3 days, read-out: SP grading of mortality
Experimental: as §2, §3, §4, §5
(lesser army worm - larvae)

[8] = system: Myzus persicae (aphids); assay: Contact test, aphids (MP), Chinese Cabbage leaf; settings: 72 h, 3 days, read-out: MP grading of mortality
Experimental: as §1, with “treatment. […] In Table III the pest organism used is designated by a letter code and the pests species, the support medium or food, and the type and duration of test is given in Table II.” for “treatment.”

[9] = system: Meloidogyne incognita (Tomato root knot eelworm - larvae); assay: Residual test, Tomato root knot eelworm - larvae (MI), Semi in-vitro; settings: 168 h, application rate is half that recorded, 7 days, read-out: MI grading of mortality; for mortality at 250 µg/mL: rate column 500 ppm; for mortality at 125 µg/mL: rate 250 ppm
[10] = system: Musca domestica (houseflies - adults); assay: Knockdown test, houseflies - adults (MD/KD), Cotton wool/sugar; settings: 4 hours, read-out: MD/KD grading of knockdown
Experimental: as §2, §3
In the case of the species Musca domestica (housefly), an additional assessment to determine the knockdown effect of the compounds was performed.
as §5

[11] = system: Blattella germanica (cockroach nymphs); assay: Residual test, cockroach nymphs (BG), Plastic pot; settings: 72 h, 3 days, read-out: BG grading of mortality
Experimental: as §1

Row | Compound | mortality at 500 ppm [1] [%] | mortality at 500 ppm [2] [%] | mortality at 500 ppm [3] [%] | mortality at 500 ppm [4] [%] | mortality at 500 ppm [5] [%] | mortality at 500 ppm [6] [%] | mortality at 500 ppm [7] [%] | mortality at 500 ppm [8] [%] | mortality at 250 µg/mL [9] [%] | pest or weed control at 500 ppm [10] [%] | mortality at 500 ppm [11] [%] | further results
1 | COc1ccc(C(CCCc2cccc(Oc3ccccc3)c2)C(F)(F)F)cc1 (racemic) [Compound 49, 1,1,1-Trifluoro-2-(4-methoxyphenyl)-5-(3-phenoxyphenyl)pentane] | 80 to 100 | < 50 | 80 to 100 | < 50 | 80 to 100 | < 50 | 80 to 100 | 80 to 100 | < 50 | 80 to 100 | < 50 | 
2 | Fc1ccc(C=CC=C(c2ccc(OC(F)(F)F)cc2)C(F)F)cc1Oc1ccccc1 [Compound 77, 1,1-difluoro-2-(4-trifluoromethoxyphenyl)-5-(4-fluoro-3-phenoxyphenyl)penta-2,4-diene] | < 50 | < 50 | 80 to 100 | 80 to 100 | 80 to 100 | < 50 | 80 to 100 | 80 to 100 | 50 to 69 | < 50 | < 50 | 
3 | FC(F)C(F)(F)Oc1ccc(C(CCCc2cccc(Oc3ccccc3)c2)C(F)(F)F)cc1 (racemic) [Compound 63, 1,1,1-trifluoro-2-[4-(1,1,2,2-tetrafluoroethoxy)phenyl]-5-(3-phenoxyphenyl)pentane] | 80 to 100 | 80 to 100 | 80 to 100 | 80 to 100 | 80 to 100 | 80 to 100 | 80 to 100 | 80 to 100 | < 50 | 80 to 100 | 80 to 100 | 
4 | FC(F)(F)C(CCCc1cccc(Oc2ccccc2)c1)c1ccc2c(c1)CCC2 (racemic) [Compound 52, 1,1,1-Trifluoro-2-(5-indanyl)-5-(3-phenoxyphenyl)pentane] |  |  |  |  |  |  |  |  |  |  |  | mortality at 250 ppm [1]: 50 to 79%; mortality at 250 ppm [2]: 80 to 100%; mortality at 250 ppm [3]: 80 to 100%; mortality at 250 ppm [4]: < 50%; mortality at 250 ppm [5]: 80 to 100%; mortality at 250 ppm [6]: < 50%; mortality at 250 ppm [7]: 80 to 100%; mortality at 250 ppm [8]: 50 to 79%; mortality at 125 µg/mL [9]: < 50%; pest or weed control at 250 ppm [10]: < 50%; mortality at 250 ppm [11]: 80 to 100%
5 | CCOc1ccc(C(CC=Cc2c(F)c(F)c(F)c(F)c2F)C(F)(F)F)cc1 (stereo not shown) [Compound 42, 1,1,1-Trifluoro-2-(4-ethoxyphenyl)-5-(pentafluorophenyl)pent-4-ene] | < 50 | < 50 | < 50 | 80 to 100 | < 50 | < 50 | < 50 | < 50 | < 50 | < 50 | < 50 | 
6 | COCc1ccc(C(=CCCc2cccc(Oc3ccccc3)c2)C(F)(F)F)cc1 [Compound 44, 1,1,1-Trifluoro-2-(4-methoxymethylphenyl)-5-(3-phenoxyphenyl)-pent-2-ene] | < 50 | 80 to 100 | < 50 | < 50 | < 50 | < 50 | 50 to 79 | < 50 | < 50 | < 50 | < 50 | 
7 | CCOc1ccc(C(CCC(C)c2cccc(Oc3ccccc3)c2)C(F)(F)F)cc1 (racemic) [Compound 55, 1,1,1-Trifluoro-2-(4-ethoxyphenyl)-5-(3-phenoxyphenyl)hexane] | 80 to 100 | < 50 | 80 to 100 | 50 to 79 | 80 to 100 | < 50 | 80 to 100 | 80 to 100 | < 50 | 80 to 100 | 80 to 100 | 
8 | CCOc1c(F)cc(C(=CCCc2cccc(Oc3ccccc3)c2)C(F)(F)F)cc1F [Compound 51, 1,1,1-Trifluoro-2-(3,5-difluoro-4-ethoxyphenyl)-5-(3-phenoxyphenyl)pent-2-ene] | 80 to 100 | < 50 | 80 to 100 | 80 to 100 | < 50 | < 50 | 80 to 100 | 80 to 100 | < 50 | 80 to 100 | 80 to 100 | 
9 | FC(F)(F)Oc1ccc(C(F)(CCCc2cccc(Oc3ccccc3)c2)C(F)(F)F)cc1 (racemic) [Compound 60, 1,1,1,2-tetrafluoro-2-(4-trifluoromethoxyphenyl)-5-(3-phenoxyphenyl)pentane] |  |  |  |  |  |  |  |  |  |  |  | mortality at 250 ppm [1]: 80 to 100%; mortality at 250 ppm [2]: 80 to 100%; mortality at 250 ppm [3]: 80 to 100%; mortality at 250 ppm [4]: 80 to 100%; mortality at 250 ppm [5]: 80 to 100%; mortality at 250 ppm [6]: 80 to 100%; mortality at 250 ppm [7]: 80 to 100%; mortality at 250 ppm [8]: 80 to 100%; mortality at 125 µg/mL [9]: < 50%; pest or weed control at 250 ppm [10]: 80 to 100%; mortality at 250 ppm [11]: 80 to 100%
10 | Fc1ccc(CCCC(c2ccc(OC(F)(F)F)cc2)C(F)F)cc1Oc1ccccc1 (racemic) [Compound 27, 1,1-Difluoro-2-(4-trifluoromethoxyphenyl)-5-(4-fluoro-3-phenoxyphenyl)pentane] | 80 to 100 | 80 to 100 | 80 to 100 | 80 to 100 | 80 to 100 | < 50 | 80 to 100 | 80 to 100 | < 50 | 80 to 100 | 80 to 100 | 
11 | CCOc1c(F)cc(C(CCCc2ccc(F)c(Oc3ccccc3)c2)C(F)(F)F)cc1F (racemic) [Compound 64, 1,1,1-Trifluoro-2-(3,5-difluoro-4-ethoxyphenyl)-5-(4-fluoro-3-phenoxyphenyl)pentane] | 80 to 100 | 80 to 100 | 80 to 100 | 50 to 79 | 80 to 100 | 80 to 100 | 80 to 100 | 80 to 100 | < 50 | 80 to 100 | 80 to 100 | 
